The results in this text go back to article PMC9519446, “Discovery of an Orally Active Benzoxaborole Prodrug Effective in the Treatment of Chagas Disease in Non-human Primates” (Nature microbiology, 2022).

The assay has as its system T. cruzi CL strain in Vero cells. The assay is described as follows: RNA-seq: parasite mRNA relative to host cell (Vero) mRNA. Type of assay: cell-based, Trypanosoma cruzi. The protocol: The drug concentration used for treatment was set at 5 times the IC50. Samples were collected at several time points for RNA extraction as previously described. rRNA-depleted RNA library construction and RNA sequencing using Illumina Nextseq 75PE was carried out by Georgia Genomics and Bioinformatics Core (GGBC, University of Georgia, Georgia). […] The mapping rate was quantified by HTseq v0.6.1 [51].

As for `Cc1c(C(=O)NC(C(=O)OCc2ccc(F)c(F)c2)C(C)C)ccc2c1B(O)OC2` (stereo not shown) [AN14353], the “RNA-seq reads mapped to African green monkey” value stood at 60 (0hpt), 63 (6hpt), 62 (12hpt) and 77 (24hpt). Further, the “RNA-seq reads mapped to T.cruzi CL Brener” value by setting is: (0hpt) 14; (6hpt) 5; (12hpt) 2; (24hpt) 1. In addition, the RNA-seq reads unmapped is 26 (0hpt), 32 (6hpt), 35 (12hpt) and 22 (24hpt). The “parasite mRNA relative to host cell mRNA” value (T. cruzi-infected Vero cells, 30 nM AN14353 or 5 uM benznidazole, from 6 hrs) was “marked and continuing reduction in parasite mRNA”.
